In the SangsterLogP compilation:

Experiments:
[1] = method code SF-AS, from DOI: 10.1021/je200827u; details: pH 5.8

Compound	logD [1]	logP
c1ccc(CSc2nc3ccccc3[nH]2)cc1	–	3.92
CC(C)Sc1nc2ccccc2[nH]1	3.25	–
CCSc1nc2ccccc2n1CC	3.43	–
NNC(=O)c1ccnc(NN)c1	–	-0.57
CC1CCC(=NNC(=O)c2ccncc2)CC1 (stereo unspecified)	0.74	–
c1ccc(C(Sc2nc3ccccc3[nH]2)c2ccccc2)cc1	–	4.9
CCSc1nc2ccccc2[nH]1	2.67	–

The remaining lines, values ahead:

logD [1]	logP	Compound
0.22	–	O=C(NN=C1CCCC1)c1ccncc1
–	-0.87	CC(=O)NNC(=O)c1ccncc1
–	0.27	O=C(NN=C1CCCCC1)c1ccncc1
3.14	–	O=[N+]([O-])c1cc(CSc2nc3ccccc3[nH]2)cc([N+](=O)[O-])c1
